According to patent publication US20250228814A1, “COMBINATION THERAPIES FOR THE TREATMENT OF VIRAL INFECTIONS” (Flagship Pioneering Innovations VI, LLC, priority 2022, published 2025):
Read-outs that look alike come from different tables or passages of the source.

How the values were obtained:
[1] = system: SARS-CoV-2; settings: for Cell viability: ginkgetin 0 μM, 72 h, normalized to remdesivir 5 μM alone
[2] = system: SARS-CoV-2; test: microbe, parasite or virus in culture
[3] = system: SARS-CoV-2; format: cell-based; settings: remdesivir alone, dose-dependent (FIG. 1)
[4] = system: SARS-CoV-2 virus [B.1.351]; format: in vivo, mice; settings: in words
[5] = Severe acute respiratory syndrome coronavirus 2, Vero C1008, 72 h, read-out: Cell viability
[6] = Severe acute respiratory syndrome coronavirus 2, Vero C1008, read-out: host cell viability

In the case of `COc1cc(O)c2c(=O)cc(-c3ccc(OC)c(-c4c(O)cc(O)c5c(=O)cc(-c6ccc(O)cc6)oc45)c3)oc2c1` [Ginkgetin], the viability ([1]; 1.5625-6.25 μM of ginkgetin alone) was 18-24%, the host cell viability ([1]; ginkgetin (25-50 μM) alone, in words) was “modest improvements in host cell viability” and the viability at 1.563 µM [2, 5] was 18.4%. It also gave a viability at 3.125 µM [2, 5] of 17.1%, a viability at 6.25 µM [2, 5] of 24.5% and a viability at 12.5 µM [2, 5] of 46.5%. For the same compound, the viability at 25 µM [2, 5] was 42.6%, the viability at 50 µM [2, 5] was 32.3% and the viability at 100 µM [2, 5] was 40.4%. The viability at 100 µM [2, 6] was at most 40%.

With `CCC(CC)COC(=O)[C@H](C)N[P@](=O)(OC[C@H]1O[C@@](C#N)(c2ccc3c(N)ncnn23)[C@H](O)[C@@H]1O)Oc1ccccc1` [Remdesivir] the “viral titers of SARS-CoV-2” value [3] was “zero”, the “infectious titers in lung” value ([4]; remdesivir 25 mg/kg intraperitoneally daily, day 4 post infection) was “strongest antiviral effect in reducing infectious titer” and the “infectious titers in lung” value ([4]; remdesivir 5, 10 or 25 mg/kg intraperitoneally daily from day 1 post infection, day 4 post infection (FIG. 2)) was “dose-dependent effect on reducing infectious titers”. For the same compound, the Cell viability ([1]; remdesivir 0.3125 μM) was 22.2%, the Cell viability ([1]; remdesivir 0.625 μM) was 23.2% and the Cell viability ([1]; remdesivir 1.25 μM) was 28.1%. For the same compound, the Cell viability ([1]; remdesivir 2.5 μM) was 37.6%, the “host cell viability of SARS-CoV-2-infected Vero E6 cells” value ([1]; remdesivir (5 μM) alone, in words) was “dose-dependently improved host cell viability” and the viability at 5 µM [2, 5] was 100%. For the same compound, the viability at 1.25 µM [2, 6] was 29% and the viability at 2.5 µM [2, 6] was 39%.
